Measurements taken from patent US20190077802A1, “DIFLUORO-(2-SUBSTITUTED CARBAMOYL-1,6-DIAZA-BICYCLO [3.2.1] OCT-6-YLOXY) ACETIC ACID COMPOUNDS AND THEIR USE IN TREATMENT OF BACTERIAL INFECTIONS” (WOCKHARDT LIMITED, priority 2015, published 2019).
Converted amounts (≈) assume the structure as drawn.

Key:
Assay in all cases: Agar dilution MIC (CLSI)
[1] = tested on: KP ATCC 700603; assay type: cell-based, K. pneumoniae; conditions: Klebsiella pneumoniae, ATCC700603, Mueller Hinton Agar
Method: (§1) The biological activity of representative compounds according to the invention against various bacterial strains was investigated. In a typical study, overnight grown bacterial cultures were diluted appropriately and inoculated on the agar media containing doubling dilutions of the test compounds. Observations for growth or no growth was performed after 16-20 hours of incubation at 35±2° C. in the ambient air. The overall procedure was performed as per Clinical and Laboratory Standards Institute (CLSI) recommendations, (Clinical and Laboratory Standards Institute (CLSI), Performance Standards for Antimicrobial Susceptibility Testing, 20th Informational Supplement, M07-A9, Volume 32, No. 2, 2012). Molten Mueller Hinton Agar (MHA) (BD, USA) containing serial dilutions of each antibacterial agent were poured on to the plates and allowed to solidify. Appropriate suspensions from the freshly grown cultures were prepared in normal saline so that about 10^4 CFU/spot of the organism was delivered on to the drug containing agar plates using automated multipoint inoculator (Mast, UK). The plates were incubated in Biochemical oxygen demand (BOD) incubator at 37° C. for 18 hours and then examined for growth.
(§2) The Table 2 depicts the antibacterial activity profile of compounds according to present invention against various multidrug resistant bacterial strains.

[2] = tested on: K. pneumoniae H 523; assay type: cell-based; conditions: Klebsiella pneumoniae, H523, Mueller Hinton Agar
Method: as §1, §2

[3] = tested on: E. coli M 138; assay type: cell-based; conditions: Escherichia coli, M138, Mueller Hinton Agar
Method: as §1, §2

[4] = tested on: K. pneumoniae H 522; assay type: cell-based; conditions: Klebsiella pneumoniae, H522, Mueller Hinton Agar
Method: as §1, §2

[5] = tested on: E. coli M 50; assay type: cell-based; conditions: Escherichia coli, M50, Mueller Hinton Agar
Method: as §1, §2

[6] = tested on: E. coli S 18; assay type: cell-based; conditions: Escherichia coli, S18, Mueller Hinton Agar
Method: as §1, §2

[7] = tested on: K. pneumoniae H 525; assay type: cell-based; conditions: Klebsiella pneumoniae, H525, Mueller Hinton Agar
Method: as §1, §2

[8] = tested on: E. coli 13352; assay type: cell-based; conditions: Escherichia coli, Mueller Hinton Agar
Method: as §1, §2

[9] = tested on: E. coli 13353; assay type: cell-based; conditions: Escherichia coli, Mueller Hinton Agar
Method: as §1, §2

[10] = tested on: K. pneumoniae H 521; assay type: cell-based; conditions: Klebsiella pneumoniae, H521, Mueller Hinton Agar
Method: as §1, §2

[11] = tested on: E. coli M 36; assay type: cell-based; conditions: Escherichia coli, M36, Mueller Hinton Agar
Method: as §1, §2

[12] = tested on: E. coli 13351; assay type: cell-based; conditions: Escherichia coli, Mueller Hinton Agar
Method: as §1, §2

[13] = tested on: E. coli M 49; assay type: cell-based; conditions: Escherichia coli, M49, Mueller Hinton Agar
Method: as §1, §2

[14] = tested on: E. coli 7 MP; assay type: cell-based; conditions: Escherichia coli, Mueller Hinton Agar
Method: as §1, §2

[15] = tested on: E. coli H 483; assay type: cell-based; conditions: Escherichia coli, H483, Mueller Hinton Agar
Method: as §1, §2

In the case of `O=C(NOC[C@@H]1CCCN1)[C@@H]1CC[C@@H]2CN1C(=O)N2OC(F)(F)C(=O)O` [Example 1], the MIC [1] is reported as > 32 µg/mL, the MIC [2] is reported as 2 µg/mL (≈ 5.29 µM) and the MIC [3] is reported as 2 µg/mL (≈ 5.29 µM). It also gave an MIC [4] of 2 µg/mL (≈ 5.29 µM), an MIC [5] of 2 µg/mL (≈ 5.29 µM) and an MIC [6] of 2 µg/mL (≈ 5.29 µM). It also gave an MIC [7] of 2 µg/mL (≈ 5.29 µM), an MIC [8] of 2 µg/mL (≈ 5.29 µM) and an MIC [9] of 2 µg/mL (≈ 5.29 µM). For the same compound, the MIC [10] was 4 µg/mL (≈ 10.6 µM), the MIC [11] was 2 µg/mL (≈ 5.29 µM) and the MIC [12] was 2 µg/mL (≈ 5.29 µM). It also gave an MIC [13] of 8 µg/mL (≈ 21.1 µM) and an MIC [14] of 4 µg/mL (≈ 10.6 µM).

For `O=C(NOC[C@H]1CCCN1)[C@@H]1CC[C@@H]2CN1C(=O)N2OC(F)(F)C(=O)O` [Example 2], the MIC [1] was > 32 µg/mL, the MIC [2] was 1 µg/mL (≈ 2.64 µM) and the MIC [3] was 1 µg/mL (≈ 2.64 µM). It also gave an MIC [4] of 1 µg/mL (≈ 2.64 µM), an MIC [5] of 1 µg/mL (≈ 2.64 µM) and an MIC [7] of 1 µg/mL (≈ 2.64 µM). For the same compound, the MIC [8] was 1 µg/mL (≈ 2.64 µM), the MIC [9] was 0.5 µg/mL (≈ 1.32 µM) and the MIC [10] was 1 µg/mL (≈ 2.64 µM). It also gave an MIC [11] of 0.5 µg/mL (≈ 1.32 µM), an MIC [12] of 1 µg/mL (≈ 2.64 µM) and an MIC [13] of 2 µg/mL (≈ 5.29 µM). The MIC [14] was 2 µg/mL (≈ 5.29 µM).

With `O=C(NOC1CCNC1)[C@@H]1CC[C@@H]2CN1C(=O)N2OC(F)(F)C(=O)O` (some centres unmarked) [Example 3] the MIC [1] was > 32 µg/mL, the MIC [2] was 4 µg/mL (≈ 11 µM) and the MIC [3] was 4 µg/mL (≈ 11 µM). It also gave an MIC [4] of 4 µg/mL (≈ 11 µM), an MIC [5] of 4 µg/mL (≈ 11 µM) and an MIC [6] of 16 µg/mL (≈ 43.9 µM). For the same compound, the MIC [7] was 4 µg/mL (≈ 11 µM), the MIC [8] was 4 µg/mL (≈ 11 µM) and the MIC [15] was > 32 µg/mL. It also gave an MIC [9] of 4 µg/mL (≈ 11 µM), an MIC [10] of 4 µg/mL (≈ 11 µM) and an MIC [11] of 4 µg/mL (≈ 11 µM). The MIC [12] was 4 µg/mL (≈ 11 µM), the MIC [13] was 8 µg/mL (≈ 22 µM) and the MIC [14] was 8 µg/mL (≈ 22 µM).

For `O=C(NOC[C@H]1CCCCN1)[C@@H]1CC[C@@H]2CN1C(=O)N2OC(F)(F)C(=O)O` [Example 4], the MIC [1] was > 32 µg/mL, the MIC [2] was 1 µg/mL (≈ 2.55 µM) and the MIC [3] was 2 µg/mL (≈ 5.1 µM). The MIC [4] was 1 µg/mL (≈ 2.55 µM), the MIC [5] was 2 µg/mL (≈ 5.1 µM) and the MIC [6] was 2 µg/mL (≈ 5.1 µM). For the same compound, the MIC [7] was 1 µg/mL (≈ 2.55 µM), the MIC [8] was 1 µg/mL (≈ 2.55 µM) and the MIC [15] was > 32 µg/mL. The MIC [9] was 1 µg/mL (≈ 2.55 µM), the MIC [10] was 2 µg/mL (≈ 5.1 µM) and the MIC [11] was 1 µg/mL (≈ 2.55 µM). The MIC [13] was 4 µg/mL (≈ 10.2 µM) and the MIC [14] was 2 µg/mL (≈ 5.1 µM).

In the case of `O=C(NOC[C@@H]1CCCCN1)[C@@H]1CC[C@@H]2CN1C(=O)N2OC(F)(F)C(=O)O` [Example 5], the MIC [1] is reported as > 32 µg/mL, the MIC [2] is reported as 4 µg/mL (≈ 10.2 µM) and the MIC [3] is reported as 4 µg/mL (≈ 10.2 µM). For the same compound, the MIC [4] was 4 µg/mL (≈ 10.2 µM), the MIC [5] was 4 µg/mL (≈ 10.2 µM) and the MIC [6] was 4 µg/mL (≈ 10.2 µM). For the same compound, the MIC [7] was 4 µg/mL (≈ 10.2 µM), the MIC [8] was 4 µg/mL (≈ 10.2 µM) and the MIC [9] was 4 µg/mL (≈ 10.2 µM). It also gave an MIC [10] of 4 µg/mL (≈ 10.2 µM), an MIC [11] of 4 µg/mL (≈ 10.2 µM) and an MIC [12] of 8 µg/mL (≈ 20.4 µM). It also gave an MIC [13] of 8 µg/mL (≈ 20.4 µM) and an MIC [14] of 8 µg/mL (≈ 20.4 µM).

For `O=C(NOC[C@H]1CCCCCN1)[C@@H]1CC[C@@H]2CN1C(=O)N2OC(F)(F)C(=O)O` [Example 6], the MIC [1] was > 32 µg/mL, the MIC [2] was 2 µg/mL (≈ 4.92 µM) and the MIC [3] was 2 µg/mL (≈ 4.92 µM). It also gave an MIC [4] of 2 µg/mL (≈ 4.92 µM), an MIC [5] of 2 µg/mL (≈ 4.92 µM) and an MIC [6] of 2 µg/mL (≈ 4.92 µM). The MIC [7] was 1 µg/mL (≈ 2.46 µM), the MIC [8] was 2 µg/mL (≈ 4.92 µM) and the MIC [15] was > 32 µg/mL. For the same compound, the MIC [9] was 1 µg/mL (≈ 2.46 µM), the MIC [10] was 2 µg/mL (≈ 4.92 µM) and the MIC [11] was 1 µg/mL (≈ 2.46 µM). It also gave an MIC [12] of 2 µg/mL (≈ 4.92 µM), an MIC [13] of 8 µg/mL (≈ 19.7 µM) and an MIC [14] of 4 µg/mL (≈ 9.84 µM).

In the case of `O=C(NOC[C@@H]1CCCCCN1)[C@@H]1CC[C@@H]2CN1C(=O)N2OC(F)(F)C(=O)O` [Example 7], the MIC [1] is reported as > 32 µg/mL, the MIC [2] is reported as 2 µg/mL (≈ 4.92 µM) and the MIC [3] is reported as 4 µg/mL (≈ 9.84 µM). The MIC [4] was 2 µg/mL (≈ 4.92 µM), the MIC [5] was 2 µg/mL (≈ 4.92 µM) and the MIC [7] was 2 µg/mL (≈ 4.92 µM). It also gave an MIC [8] of 2 µg/mL (≈ 4.92 µM), an MIC [9] of 4 µg/mL (≈ 9.84 µM) and an MIC [10] of 2 µg/mL (≈ 4.92 µM). The MIC [11] was 4 µg/mL (≈ 9.84 µM), the MIC [12] was 2 µg/mL (≈ 4.92 µM) and the MIC [13] was 2 µg/mL (≈ 4.92 µM). The MIC [14] was 4 µg/mL (≈ 9.84 µM).

For `NCCONC(=O)[C@@H]1CC[C@@H]2CN1C(=O)N2OC(F)(F)C(=O)O` [Example 8], the MIC [1] was > 32 µg/mL, the MIC [2] was 4 µg/mL (≈ 11.8 µM) and the MIC [3] was 4 µg/mL (≈ 11.8 µM). For the same compound, the MIC [4] was 4 µg/mL (≈ 11.8 µM), the MIC [5] was 4 µg/mL (≈ 11.8 µM) and the MIC [6] was 4 µg/mL (≈ 11.8 µM). For the same compound, the MIC [7] was 4 µg/mL (≈ 11.8 µM), the MIC [8] was 4 µg/mL (≈ 11.8 µM) and the MIC [15] was > 32 µg/mL. It also gave an MIC [9] of 4 µg/mL (≈ 11.8 µM), an MIC [10] of 4 µg/mL (≈ 11.8 µM) and an MIC [11] of 2 µg/mL (≈ 5.91 µM). The MIC [12] was 4 µg/mL (≈ 11.8 µM), the MIC [13] was 4 µg/mL (≈ 11.8 µM) and the MIC [14] was 8 µg/mL (≈ 23.6 µM).
